# Laboratory results reported in paper PMC12621043, “Un-LOK-ing a New Approach for Conformational Selective Targeting of STK10 (LOK)” (ACS Medicinal Chemistry Letters, 2025).
# What was measured:
# Test in all cases: DSF Tm panel
# Format in all cases: binding
# Details in all cases: 10 μM compound
# MERTK = target: T1, MERTK (Homo sapiens, UniProt Q12866)
# T1 construct: purchased in-house DSF kinase panel (SGC-style construct names; the trailing letter is the construct ID)
# T1 sequence (Q12866 570-864): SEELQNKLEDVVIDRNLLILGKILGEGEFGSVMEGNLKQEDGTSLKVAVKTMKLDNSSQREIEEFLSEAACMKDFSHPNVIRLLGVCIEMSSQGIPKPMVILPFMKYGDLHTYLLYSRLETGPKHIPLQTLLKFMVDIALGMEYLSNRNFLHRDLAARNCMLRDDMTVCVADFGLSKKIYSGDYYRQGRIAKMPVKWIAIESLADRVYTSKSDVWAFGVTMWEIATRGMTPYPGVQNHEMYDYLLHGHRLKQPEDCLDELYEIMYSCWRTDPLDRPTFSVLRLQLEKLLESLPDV
# PDK4A = target: T2, PDK4A (Homo sapiens, UniProt Q16654)
# T2 construct: purchased in-house DSF kinase panel (SGC-style construct names; the trailing letter is the construct ID)
# T2 sequence (Q16654 whole entry): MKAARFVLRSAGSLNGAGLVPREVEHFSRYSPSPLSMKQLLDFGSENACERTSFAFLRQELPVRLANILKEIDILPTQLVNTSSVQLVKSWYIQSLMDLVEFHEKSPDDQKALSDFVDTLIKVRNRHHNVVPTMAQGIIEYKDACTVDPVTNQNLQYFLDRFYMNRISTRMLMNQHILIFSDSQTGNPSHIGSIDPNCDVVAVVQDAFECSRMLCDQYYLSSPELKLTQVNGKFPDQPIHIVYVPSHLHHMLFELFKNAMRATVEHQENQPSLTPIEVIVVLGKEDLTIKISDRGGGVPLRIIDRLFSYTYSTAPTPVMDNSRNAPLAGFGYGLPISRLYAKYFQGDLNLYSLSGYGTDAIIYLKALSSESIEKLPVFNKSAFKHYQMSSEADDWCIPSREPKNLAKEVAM
# RIOK1A = target: T3, RIOK1A (Homo sapiens, UniProt Q9BRS2)
# T3 construct: purchased in-house DSF kinase panel (SGC-style construct names; the trailing letter is the construct ID)
# T3 sequence (Q9BRS2 143-494): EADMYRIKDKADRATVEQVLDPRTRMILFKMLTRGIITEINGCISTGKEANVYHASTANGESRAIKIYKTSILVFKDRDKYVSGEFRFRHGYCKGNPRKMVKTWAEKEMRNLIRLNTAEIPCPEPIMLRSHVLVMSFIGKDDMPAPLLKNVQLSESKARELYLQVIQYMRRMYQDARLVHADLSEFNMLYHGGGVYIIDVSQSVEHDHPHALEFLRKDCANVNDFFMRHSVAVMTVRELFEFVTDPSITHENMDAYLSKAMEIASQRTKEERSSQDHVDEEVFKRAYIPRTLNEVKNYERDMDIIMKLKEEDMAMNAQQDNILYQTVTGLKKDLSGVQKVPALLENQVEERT
# STK38LA = target: T4, STK38LA (Homo sapiens, UniProt Q9Y2H1)
# T4 construct: purchased in-house DSF kinase panel (SGC-style construct names; the trailing letter is the construct ID)
# T4 sequence (Q9Y2H1 90-453): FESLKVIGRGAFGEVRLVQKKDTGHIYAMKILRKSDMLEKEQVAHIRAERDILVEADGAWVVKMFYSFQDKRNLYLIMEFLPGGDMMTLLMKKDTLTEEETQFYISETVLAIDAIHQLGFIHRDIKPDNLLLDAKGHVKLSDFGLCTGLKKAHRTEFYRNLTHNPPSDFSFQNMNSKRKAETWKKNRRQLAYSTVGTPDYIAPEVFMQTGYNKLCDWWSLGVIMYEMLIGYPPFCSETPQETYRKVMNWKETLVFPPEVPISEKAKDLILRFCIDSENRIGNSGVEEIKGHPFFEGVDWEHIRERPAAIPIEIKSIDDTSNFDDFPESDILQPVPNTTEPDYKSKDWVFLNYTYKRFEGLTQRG
# WNK1A = target: T5, WNK1A (Homo sapiens, UniProt Q9H4A3)
# T5 construct: purchased in-house DSF kinase panel (SGC-style construct names; the trailing letter is the construct ID)
# T5 sequence (Q9H4A3 206-483): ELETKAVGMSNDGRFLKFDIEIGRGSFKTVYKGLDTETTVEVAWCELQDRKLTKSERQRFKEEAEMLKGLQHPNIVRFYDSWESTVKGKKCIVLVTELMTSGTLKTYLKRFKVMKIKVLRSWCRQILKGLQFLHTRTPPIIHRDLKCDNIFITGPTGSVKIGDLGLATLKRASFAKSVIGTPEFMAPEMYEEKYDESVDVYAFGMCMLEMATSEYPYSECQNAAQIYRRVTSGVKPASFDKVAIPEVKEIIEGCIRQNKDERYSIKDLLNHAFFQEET
# EPHB1A = target: T6, EPHB1A (Homo sapiens, UniProt P54762)
# T6 construct: purchased in-house DSF kinase panel (SGC-style construct names; the trailing letter is the construct ID)
# T6 sequence (P54762 602-896): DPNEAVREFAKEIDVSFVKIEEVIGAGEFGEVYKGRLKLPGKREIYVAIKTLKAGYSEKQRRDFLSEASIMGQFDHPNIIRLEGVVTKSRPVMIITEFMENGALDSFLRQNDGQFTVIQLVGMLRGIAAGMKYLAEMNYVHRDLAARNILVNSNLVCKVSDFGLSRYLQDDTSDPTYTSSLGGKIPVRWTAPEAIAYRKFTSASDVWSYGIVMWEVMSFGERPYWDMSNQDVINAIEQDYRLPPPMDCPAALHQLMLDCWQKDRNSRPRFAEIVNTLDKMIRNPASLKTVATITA
# TIF1A = target: T7, TIF1A (Homo sapiens, UniProt O15164)
# T7 construct: purchased in-house DSF kinase panel (SGC-style construct names; the trailing letter is the construct ID)
# T7 sequence (O15164 1-1050): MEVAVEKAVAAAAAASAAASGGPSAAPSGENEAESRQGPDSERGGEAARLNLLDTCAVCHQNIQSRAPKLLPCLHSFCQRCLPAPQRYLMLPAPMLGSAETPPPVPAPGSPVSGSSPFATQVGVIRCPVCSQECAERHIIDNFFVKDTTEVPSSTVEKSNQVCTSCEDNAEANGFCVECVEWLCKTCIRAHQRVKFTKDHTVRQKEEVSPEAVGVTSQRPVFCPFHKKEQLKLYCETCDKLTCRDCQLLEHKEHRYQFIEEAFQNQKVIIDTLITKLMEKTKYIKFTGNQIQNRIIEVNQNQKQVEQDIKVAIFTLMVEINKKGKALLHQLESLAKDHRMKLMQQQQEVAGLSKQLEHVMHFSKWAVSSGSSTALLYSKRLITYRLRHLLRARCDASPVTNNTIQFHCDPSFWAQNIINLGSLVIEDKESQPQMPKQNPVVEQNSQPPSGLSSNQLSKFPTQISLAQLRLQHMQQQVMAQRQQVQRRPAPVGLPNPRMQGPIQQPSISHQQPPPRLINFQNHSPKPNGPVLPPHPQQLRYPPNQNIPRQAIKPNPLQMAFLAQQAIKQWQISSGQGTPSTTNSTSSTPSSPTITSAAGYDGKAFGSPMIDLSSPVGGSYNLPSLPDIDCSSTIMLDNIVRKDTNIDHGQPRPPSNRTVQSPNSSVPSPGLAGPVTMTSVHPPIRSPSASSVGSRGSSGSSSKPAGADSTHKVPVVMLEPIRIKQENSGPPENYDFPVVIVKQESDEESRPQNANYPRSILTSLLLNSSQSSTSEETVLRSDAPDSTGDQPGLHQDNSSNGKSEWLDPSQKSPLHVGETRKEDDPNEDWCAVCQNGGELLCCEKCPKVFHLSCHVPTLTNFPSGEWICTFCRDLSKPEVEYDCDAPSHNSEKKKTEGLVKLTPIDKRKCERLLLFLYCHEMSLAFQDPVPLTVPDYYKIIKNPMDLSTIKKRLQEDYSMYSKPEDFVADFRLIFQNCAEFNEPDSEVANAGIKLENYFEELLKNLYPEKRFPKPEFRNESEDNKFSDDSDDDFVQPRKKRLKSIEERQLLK
Compound,ΔTm at 10 µM (MERTK),ΔTm at 10 µM (PDK4A),ΔTm at 10 µM (RIOK1A),ΔTm at 10 µM (STK38LA),ΔTm at 10 µM (WNK1A),ΔTm at 10 µM (EPHB1A),ΔTm at 10 µM (TIF1A)
O=C(NCc1ccccc1)Nc1ccc2cc1OCCOCCNc1ccn3ncc-2c3n1 [compound 16],1.4 °C,-0.7 °C,0.1 °C,0.8 °C,0 °C,–,–
O=C(NCc1ccccc1Cl)Nc1ccc2cc1OCCOCCNc1ccn3ncc-2c3n1 [compound 17],1.6 °C,0.8 °C,0.5 °C,0.7 °C,0.5 °C,–,–
O=C(NCc1cccc(Cl)c1)Nc1ccc2cc1OCCOCCNc1ccn3ncc-2c3n1 [compound 18],1.8 °C,1 °C,1.4 °C,1.1 °C,0.09 °C,–,–
O=C(NCc1ccc(Cl)cc1)Nc1ccc2cc1OCCOCCNc1ccn3ncc-2c3n1 [compound 19],2.5 °C,0.8 °C,1.1 °C,0.6 °C,-0.2 °C,–,–
O=C(NCc1ccc(Cl)cc1Cl)Nc1ccc2cc1OCCOCCNc1ccn3ncc-2c3n1 [compound 20],2.2 °C,1.1 °C,1.9 °C,0.7 °C,0.4 °C,–,–
O=C(NCc1ccc(Cl)cc1F)Nc1ccc2cc1OCCOCCNc1ccn3ncc-2c3n1 [compound 21],2.7 °C,1.1 °C,-0.1 °C,1.2 °C,-0.2 °C,–,–
Cc1cc(Cl)ccc1CNC(=O)Nc1ccc2cc1OCCOCCNc1ccn3ncc-2c3n1 [compound 23],3.1 °C,0.6 °C,0.6 °C,1.7 °C,1.6 °C,–,–
Cc1cc(Br)ccc1CNC(=O)Nc1ccc2cc1OCCOCCNc1ccn3ncc-2c3n1 [compound 24],–,–,–,–,–,0.2 °C,1 °C
Cc1ccc(F)cc1CNC(=O)Nc1ccc2cc1OCCOCCNc1ccn3ncc-2c3n1 [compound 26],–,–,–,–,–,0.3 °C,0.4 °C
O=C(NCc1ccccc1C(F)(F)F)Nc1ccc2cc1OCCOCCNc1ccn3ncc-2c3n1 [compound 27],–,–,–,–,–,0.3 °C,1.3 °C
O=C(NCc1ccc(C(F)(F)F)cc1)Nc1ccc2cc1OCCOCCNc1ccn3ncc-2c3n1 [compound 28],–,–,–,–,–,0.5 °C,1.6 °C
COc1ccccc1CNC(=O)Nc1ccc2cc1OCCOCCNc1ccn3ncc-2c3n1 [compound 29],–,–,–,–,–,0.1 °C,0.5 °C
COc1cccc(CNC(=O)Nc2ccc3cc2OCCOCCNc2ccn4ncc-3c4n2)c1 [compound 30],–,–,–,–,–,0.2 °C,0.3 °C
COc1ccc(CNC(=O)Nc2ccc3cc2OCCOCCNc2ccn4ncc-3c4n2)cc1 [compound 31],–,–,–,–,–,0.4 °C,0.2 °C
COc1ccc(CNC(=O)Nc2ccc3cc2OCCOCCNc2ccn4ncc-3c4n2)cc1F [compound 32],–,–,–,–,–,0.3 °C,0.5 °C
COc1cc(CNC(=O)Nc2ccc3cc2OCCOCCNc2ccn4ncc-3c4n2)ccc1F [compound 33],–,–,–,–,–,0.5 °C,0.6 °C
C[C@H](NC(=O)Nc1ccc2cc1OCCOCCNc1ccn3ncc-2c3n1)c1ccccc1 [compound 34],–,–,–,–,–,0.1 °C,-0.1 °C
CN1CCN(C(=O)Nc2ccc3cc2OCCOCCNc2ccn4ncc-3c4n2)CC1 [compound 35],0.4 °C,0.5 °C,1.2 °C,0.4 °C,0.4 °C,–,–
